Measured values as given in US20150147309A1, “ALLOSTERIC CHAPERONES AND USES THEREOF” (Fondazione Telethon, priority 2012, published 2015).

Experiments:
[1] = molecular target: T1, rhGAA (Homo sapiens, UniProt P10253); assay: Thermal stability scans of rhGAA (SYPRO Orange); assay type: binding; settings: pH 7.4
T1 construct: purchased Genzyme Co, Cambridge, Mass., USA
Description: Thermal stability scans of rhGAA were performed as described in [Flanagan et al. 2009]. Briefly, 2.5 μg of enzyme were incubated in the absence and in the presence of NAC and DNJ, 10 mM and 0.1 mM, respectively, SYPRO Orange dye, and sodium phosphate 25 mM buffer, 150 mM NaCl, pH 7.4 or sodium acetate 25 mM buffer, 150 mM NaCl, pH 5.2. Thermal stability scans were performed at 1° C./min in the range 25-95° C. in a Real Time LightCycler (Bio-Rad). SYPRO Orange fluorescence was normalized to maximum fluorescence value within each scan to obtain relative fluorescence. Melting temperatures were calculated according to (Niesen et al. 2007).

[2] = molecular target: T1, rhGAA; assay: Effect on rhGAA enzyme activity (standard activity assay); assay type: biochemical; settings: three concentrations (FIG. 4)
Description: The standard activity assay of rhGAA was performed in 200 μl by using 5 μg of enzyme at 37° C. in 100 mM sodium acetate pH 4.0 and 20 mM 4NP-Glc. The reaction was started by adding the enzyme; after suitable incubation time (1-2 min) the reaction was blocked by adding 800 μL of 1 M sodium carbonate pH 10.2. Absorbance was measured at 420 nm at room temperature, the extinction coefficient to calculate enzymatic units was 17.2 mM^−1 cm^−1. One enzymatic unit is defined as the amount of enzyme catalyzing the conversion of 1 μmol substrate into product in 1 min, under the indicated conditions.

[3] = molecular target: T2, rhGAA in PD fibroblasts (Homo sapiens, UniProt P10253); assay: Correction of GAA activity by rhGAA in PD fibroblasts with chaperone (synergy); assay type: cell-based
T2 construct: purchased Genzyme Co, Cambridge, Mass., USA
Description: To study the rhGAA uptake and correction of GAA activity in PD fibroblasts, the cells were incubated with […] rhGAA for 24 hours, in the absence or in the presence of 10 mM NAC. Untreated cells or were used for comparison. After the incubation the cells were harvested by trypsinization and disrupted by 5 cycles of freezing and thawing.
GAA activity was assayed by using the fluorogenic substrate 4-methylumbelliferyl-alpha-D-glucopyranoside (Sigma-Aldrich) according to a published procedure [Porto et al, 2009]. Briefly, 25 micrograms of protein were incubated with the fluorogenic substrate (2 mM) in 0.2 M acetate buffer, pH 4.0, for 60 minutes in incubation mixtures of 100 μl. The reaction was stopped by adding 700 μl of glycine-carbonate buffer, pH 10.7. Fluorescence was read at 365 nm (excitation) and 450 nm (emission) on a Turner Biosystems Modulus fluorometer. Protein concentration in cell homogenates was measured by the Bradford assay (Biorad, Hercules, Calif.).
To study GAA immunoreactive material, fibroblast extracts were subjected to western blot analysis. The cells were harvested, washed in phosphate-buffered saline, resuspended in water, and disrupted by five cycles of freeze-thawing. Equal amounts (20 μg protein) of fibroblast extracts were subjected to sodium dodecyl sulfate polyacrylamide gel electrophoresis and proteins were transferred to PVD membrane (Millipore, Billerica, Mass.). An anti-human GAA antiserum was used as primary antibody to detect GAA polypeptides; to detect β-actin, a monoclonal mouse antibody was used Immunoreactive proteins were detected by chemiluminescence (ECL, Amersham, Freiburg, Germany)
To study the distribution of AlexaFluor546 labeleld GAA, PD fibroblasts grown on coverslips were fixed using methanol, permeabilized using 0.1% saponin and locked with 0.01% saponin, 1% fetal bovine serum diluted in phosphate-buffered saline for 1 hour. The cells were incubated with the primary antibodies, with secondary antibodies in blocking solution and then mounted with vectashield mounting medium (Vector Laboratories, Burlingame, Calif.). Samples were examined with a Zeiss LSM 5 10 laser scanning confocal microscope. Authors used Argon/2 (458, 477, 488, and 514 nanometers) and HeNe1 (543 nanometers) excitation lasers, which were switched-on separately to reduce crosstalk of the two fluorochromes. The green and the red emissions were separated by a dichroic splitter (FT 560) and filtered (515-540-nm bandpass filter for green and >610-nm long pass filter for red emission). A threshold was applied to the images to exclude ˜99% of the signal found in control images.

[4] = molecular target: T3, GAA activity in tissues (Homo sapiens, UniProt P10253); assay: Synergy between NAC and rhGAA in vivo in mouse model of PD; design: species or system mice; settings: oral NAC 5 days, rhGAA 100 mg/kg on day 3, liver, heart, diaphragm, gastrocnemium, not statistically significant
T3 construct: purchased Genzyme Co, Cambridge, Mass., USA
Description: Animal studies were performed according to the European Union Directive 86/609, regarding the protection of animals used for experimental purposes. The animals, mice model of PD [Raben et al, 1993], were allowed to drink 138 mM NAC in water ad libitum (4.2 g/kg/day) for 5 days. On day 3 they received a single rhGAA injection (100 mg/kg) in the tail vein. On day 5 the animals were sacrificed and tissues were analyzed for GAA activity.

[5] = molecular target: T4, rh-alpha-Gal A (Homo sapiens, UniProt P06280); assay: Effect of NAC on rh-alpha-Gal A at neutral pH; assay type: biochemical; settings: 10 mM, 50 mM sodium citrate/phosphate buffer pH 7.0, after 48 h
T4 construct: purchased Genzyme Co, Cambridge, Mass., USA
T4 sequence (P06280 32-429): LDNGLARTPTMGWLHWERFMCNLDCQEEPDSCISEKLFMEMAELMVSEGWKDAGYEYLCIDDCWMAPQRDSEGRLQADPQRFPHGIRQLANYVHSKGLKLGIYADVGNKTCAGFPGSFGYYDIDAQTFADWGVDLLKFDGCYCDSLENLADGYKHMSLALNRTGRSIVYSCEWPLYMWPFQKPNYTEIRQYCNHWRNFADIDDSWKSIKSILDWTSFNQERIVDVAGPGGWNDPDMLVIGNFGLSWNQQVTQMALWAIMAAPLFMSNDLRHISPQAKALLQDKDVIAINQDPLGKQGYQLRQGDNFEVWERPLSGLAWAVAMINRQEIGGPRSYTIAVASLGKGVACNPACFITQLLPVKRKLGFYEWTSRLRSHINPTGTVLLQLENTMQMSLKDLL
Description: An important concern on the use of pharmacological chaperones is the specificity of their effects and the possibility of interactions with other enzymes. […] The latter family includes lysosomal alpha-galactosidase A (alpha-Gal A), that is defective in another LSD, Fabry disease [Germain, 2010]. Two preparations of recombinant human alpha-Gal A (rh-alpha-Gal A) have been approved for ERT in Fabry disease patients. To test if NAC is active on this enzyme, authors incubated rh-alpha-Gal A and 10 mM NAC in 50 mM sodium citrate/phosphate buffer, pH 7.0. NAC had no effect on rh-alpha-Gal A after 48 h (FIG. 10A).

- ΔTm at 10000 µM ([1]; 10 mM, read-out: increase of melting temperature (Tm) of rhGAA): 10.5 ± 0.5 °C
- Tm of rhGAA in the presence of chaperone ([1]; NAC 10 mM, DNJ 0.1 mM): 60.7±0.5 °C
- effect on the activity of the enzyme (rhGAA) [2]: not a competitive inhibitor
- amount of fluorochrome-labelled GAA compared to fluorescent GAA alone ([3]; PD fibroblasts): increase
- correction of the enzymatic defect on co-administration with rhGAA ([3]; PD fibroblasts): complete correction
- processing of rhGAA into the mature active isoforms ([3]; PD fibroblasts, western blot band density): improved
- GAA-related polypeptides on western blot compared to rhGAA alone ([3]; PD fibroblasts, with rhGAA): increased amounts
- improvement of GAA activity on co-administration with rhGAA, dose dependence ([3]; fibroblasts from patient 3, 0.02-10 mM): dose-dependent effect
- correction of GAA enzyme activity in tissues, combination with rhGAA vs rhGAA alone [4]: superior to rhGAA alone
- effect on rh-alpha-Gal A [5]: no effect
SMILES: CC(=O)N[C@@H](CS)C(=O)O [NAC, N-acetyl cysteine]
